Where two headings read alike, the source gives them in different places.
Tested on: Mtb H37Rv
Assay type: cell-based, Mycobacterium tuberculosis H37Rv

Structure (SMILES)	spontaneous resistance mutation frequency (Mtb H37Rv, 12 at 4× and 8× MIC90)	spontaneous resistance mutation frequency
CCCCCCCCn1cc(CN2CCCCCC2)c2c(F)cccc21 [Compound 71, 3-(azepan-1-ylmethyl)-4-fluoro-1-octyl-1H indole]	< 10^−9 /CFU	
CCCCCCCCn1cc(CN2CCC3(CC2)OCCCO3)c2ccc(OC)cc21 [Compound 12]		10^−8 /CFU

— PMC6043372 (Journal of medicinal chemistry, 2018)
